# Source: patent US8691865B2 (AbbVie Inc., priority 2008, dated 2014)
# Like-named read-outs stand apart in the source and are kept apart here.
# Target: human Cav2.2 (Homo sapiens, UniProt Q00975)
# Experiment: Assessment of calcium channel activity using FLIPR (Ca2+ influx in IMR32 cells)
# Type: cell-based
# Description: (i) In Vitro Methods—Assessment of Calcium Channel Activity Using FLIPR:
# The IMR32 cells were maintained in MEM media containing 10% (v/v) FBS, 1% (v/v) antibiotic/antimitotic, 1% (v/v) sodium pyruvate and 1% (v/v) MEM NEAA. Following dissociation in 0.05% (v/v) trypsin/EDTA, cells were seeded into black 1×96-well plates (Corning Cellbind) at a density of 1−1.2×10^5 cells/well and incubated in the maintenance media above for 48 hours at 37° C. […] To determine the IC50 values, the percent inhibition of the compound at each concentration was determined relative to the activity in the absence of inhibitor, and data was fitted using non-linear regression sigmoidal dose response curve analysis with GraphPad Prism®.
# [1] = read-out: IC50 (μM) or percent inhibition (* indicates 3 minute incubation, otherwise 60 minute), IC50, 60 minute pre-incubation with compound, IMR32 cells, 80 mM KCl depolarization
# Sequence of human Cav2.2 (Q00975 whole entry): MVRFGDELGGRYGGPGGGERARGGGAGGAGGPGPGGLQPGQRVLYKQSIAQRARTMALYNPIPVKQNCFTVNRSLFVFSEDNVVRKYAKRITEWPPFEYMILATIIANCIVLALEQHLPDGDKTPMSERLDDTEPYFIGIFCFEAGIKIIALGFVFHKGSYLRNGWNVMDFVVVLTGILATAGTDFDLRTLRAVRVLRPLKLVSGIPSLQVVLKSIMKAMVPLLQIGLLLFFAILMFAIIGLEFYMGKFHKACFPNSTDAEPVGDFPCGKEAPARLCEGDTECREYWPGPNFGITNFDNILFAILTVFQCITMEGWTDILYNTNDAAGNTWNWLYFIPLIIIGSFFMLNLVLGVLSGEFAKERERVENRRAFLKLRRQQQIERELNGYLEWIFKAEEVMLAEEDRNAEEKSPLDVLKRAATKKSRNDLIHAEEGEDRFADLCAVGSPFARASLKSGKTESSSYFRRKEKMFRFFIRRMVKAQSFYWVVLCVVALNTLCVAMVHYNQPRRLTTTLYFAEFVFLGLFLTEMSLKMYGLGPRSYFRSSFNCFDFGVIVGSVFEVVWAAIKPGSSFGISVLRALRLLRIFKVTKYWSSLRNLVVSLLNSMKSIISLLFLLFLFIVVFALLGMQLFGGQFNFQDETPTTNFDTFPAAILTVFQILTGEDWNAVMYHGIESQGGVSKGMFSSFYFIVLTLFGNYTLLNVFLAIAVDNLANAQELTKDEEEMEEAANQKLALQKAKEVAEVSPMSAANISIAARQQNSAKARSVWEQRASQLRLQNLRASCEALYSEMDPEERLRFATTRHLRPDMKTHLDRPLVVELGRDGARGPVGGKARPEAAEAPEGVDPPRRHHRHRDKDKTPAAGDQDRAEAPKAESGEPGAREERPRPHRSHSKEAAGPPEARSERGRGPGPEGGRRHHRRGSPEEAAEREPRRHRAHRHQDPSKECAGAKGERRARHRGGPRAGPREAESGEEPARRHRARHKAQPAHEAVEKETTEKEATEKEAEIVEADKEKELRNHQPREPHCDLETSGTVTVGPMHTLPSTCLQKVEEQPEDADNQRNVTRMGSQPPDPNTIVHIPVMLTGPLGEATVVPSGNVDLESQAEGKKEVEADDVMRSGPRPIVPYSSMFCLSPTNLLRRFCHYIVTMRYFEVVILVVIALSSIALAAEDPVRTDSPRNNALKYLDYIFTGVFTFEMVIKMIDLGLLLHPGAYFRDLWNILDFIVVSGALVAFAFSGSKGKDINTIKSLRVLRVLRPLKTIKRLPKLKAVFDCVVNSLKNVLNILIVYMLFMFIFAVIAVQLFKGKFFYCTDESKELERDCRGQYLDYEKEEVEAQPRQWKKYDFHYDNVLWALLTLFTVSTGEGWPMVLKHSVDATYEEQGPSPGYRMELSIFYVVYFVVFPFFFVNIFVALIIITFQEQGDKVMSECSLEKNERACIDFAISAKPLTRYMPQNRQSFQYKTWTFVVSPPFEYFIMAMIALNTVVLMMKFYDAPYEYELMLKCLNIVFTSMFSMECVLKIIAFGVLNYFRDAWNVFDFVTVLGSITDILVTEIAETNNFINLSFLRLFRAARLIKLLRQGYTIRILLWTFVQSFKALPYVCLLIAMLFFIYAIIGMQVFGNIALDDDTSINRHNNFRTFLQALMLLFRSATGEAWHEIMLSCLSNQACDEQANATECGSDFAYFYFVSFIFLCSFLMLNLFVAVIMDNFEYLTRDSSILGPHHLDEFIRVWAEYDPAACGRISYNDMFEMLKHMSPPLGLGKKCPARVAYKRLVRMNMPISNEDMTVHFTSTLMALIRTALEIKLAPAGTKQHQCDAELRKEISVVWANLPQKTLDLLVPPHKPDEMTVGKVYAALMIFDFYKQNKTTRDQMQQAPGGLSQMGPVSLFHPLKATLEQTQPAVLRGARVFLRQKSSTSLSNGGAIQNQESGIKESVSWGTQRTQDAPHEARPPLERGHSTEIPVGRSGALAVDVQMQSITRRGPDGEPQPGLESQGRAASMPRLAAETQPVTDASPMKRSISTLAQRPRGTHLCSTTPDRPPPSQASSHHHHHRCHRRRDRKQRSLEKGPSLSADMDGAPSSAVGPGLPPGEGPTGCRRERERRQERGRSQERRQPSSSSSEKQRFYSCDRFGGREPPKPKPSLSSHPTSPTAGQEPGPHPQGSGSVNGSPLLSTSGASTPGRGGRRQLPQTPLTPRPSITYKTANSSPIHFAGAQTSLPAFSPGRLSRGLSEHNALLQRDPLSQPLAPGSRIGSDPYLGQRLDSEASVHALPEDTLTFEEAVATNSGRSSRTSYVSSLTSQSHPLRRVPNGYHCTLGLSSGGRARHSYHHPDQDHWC
# Sequence of human Cav2.2 (P54289 25-956 partner limits assumed): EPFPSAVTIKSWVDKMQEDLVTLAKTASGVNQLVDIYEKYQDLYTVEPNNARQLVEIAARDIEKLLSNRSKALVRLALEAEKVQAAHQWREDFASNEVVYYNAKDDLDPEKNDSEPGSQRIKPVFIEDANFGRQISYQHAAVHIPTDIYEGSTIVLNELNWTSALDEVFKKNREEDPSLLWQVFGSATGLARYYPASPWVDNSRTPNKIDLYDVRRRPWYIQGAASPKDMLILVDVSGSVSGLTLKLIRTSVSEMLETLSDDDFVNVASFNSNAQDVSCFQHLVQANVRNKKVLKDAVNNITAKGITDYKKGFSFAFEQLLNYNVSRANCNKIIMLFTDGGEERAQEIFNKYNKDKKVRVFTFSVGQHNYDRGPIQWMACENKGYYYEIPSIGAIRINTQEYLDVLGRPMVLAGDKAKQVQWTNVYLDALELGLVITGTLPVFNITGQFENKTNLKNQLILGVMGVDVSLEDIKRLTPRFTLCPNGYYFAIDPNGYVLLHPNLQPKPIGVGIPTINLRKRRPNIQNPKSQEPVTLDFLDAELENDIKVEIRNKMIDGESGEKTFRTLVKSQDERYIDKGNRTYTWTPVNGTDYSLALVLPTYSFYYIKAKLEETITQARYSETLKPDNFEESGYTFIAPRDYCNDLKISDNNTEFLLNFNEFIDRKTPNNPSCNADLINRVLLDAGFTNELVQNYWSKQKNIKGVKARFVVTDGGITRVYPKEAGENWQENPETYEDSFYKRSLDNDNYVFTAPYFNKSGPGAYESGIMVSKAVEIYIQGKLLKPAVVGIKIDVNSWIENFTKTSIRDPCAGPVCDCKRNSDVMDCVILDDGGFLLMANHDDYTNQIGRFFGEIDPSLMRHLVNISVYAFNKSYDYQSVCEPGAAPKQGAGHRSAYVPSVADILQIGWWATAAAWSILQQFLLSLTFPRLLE
# Sequence of human Cav2.2 (P54289 957-1103 partner limits assumed): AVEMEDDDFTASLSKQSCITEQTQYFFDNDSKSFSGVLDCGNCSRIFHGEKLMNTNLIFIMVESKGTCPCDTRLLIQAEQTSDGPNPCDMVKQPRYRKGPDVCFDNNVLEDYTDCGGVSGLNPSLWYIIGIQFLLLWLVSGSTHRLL
# Sequence of human Cav2.2 (P54284 whole entry partner): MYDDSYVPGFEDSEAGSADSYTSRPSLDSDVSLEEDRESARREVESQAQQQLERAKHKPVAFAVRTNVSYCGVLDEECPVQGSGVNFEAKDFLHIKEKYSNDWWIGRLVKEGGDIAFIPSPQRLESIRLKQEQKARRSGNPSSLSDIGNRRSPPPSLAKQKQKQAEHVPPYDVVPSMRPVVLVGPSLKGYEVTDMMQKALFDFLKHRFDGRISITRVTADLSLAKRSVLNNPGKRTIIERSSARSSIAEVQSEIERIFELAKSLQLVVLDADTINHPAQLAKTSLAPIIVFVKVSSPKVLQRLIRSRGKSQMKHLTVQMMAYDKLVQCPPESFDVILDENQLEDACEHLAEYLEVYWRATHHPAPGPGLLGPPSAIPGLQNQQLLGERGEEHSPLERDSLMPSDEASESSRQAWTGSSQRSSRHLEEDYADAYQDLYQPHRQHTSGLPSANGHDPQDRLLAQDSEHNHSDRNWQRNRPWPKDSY
SMILES,IC50,IC50 [1]
"O=C(N[C@H]1CC[C@@H]2CN(c3cccc(C(F)(F)F)n3)C[C@@H]21)c1ccc(F)c(Cl)c1 [Example 566, 3-chloro-4-fluoro-N-{(3aR,4S,6aS)-2-[6-(trifluoromethyl)pyridin-2-yl]octahydrocyclopenta[c]pyrrol-4-yl}benzamide]",0.81 µM,–
"CC(C)C[C@@H](NC(=O)OC(C)(C)C)C(=O)N[C@@H]1CC[C@H]2CN(Cc3cccc(C(F)(F)F)c3)C[C@H]21 (relative stereo) [Example 149, N^2-(tert-butyloxycarbonyl)-N^1-{(3aS*,4R*,6aR*)-2-[3-(trifluoromethyl)benzyl]octahydrocyclopenta[c]pyrrol-4-yl}-D-leucinamide]",–,0.62 µM
"CC(C)C(C(=O)N[C@H]1CC[C@@H]2CN(Cc3cccs3)C[C@@H]21)c1ccccc1 (stereo partly drawn) [Example 102, 3-methyl-2-phenyl-N-[(3aR,4S,6aS)-2-(thien-2-ylmethyl)octahydrocyclopenta[c]pyrrol-4-yl]butanamide]",–,2.77 µM
"CC(C)C[C@H](N[C@H]1CC[C@@H]2CN(c3cccc(C(F)(F)F)n3)C[C@@H]21)C(N)=O [Example 706, N^2-{(3aR,4S,6aS)-2-[6-(trifluoromethyl)pyridin-2-yl]octahydrocyclopenta[c]pyrrol-4-yl}-L-leucinamide]",1.12 µM,–
"CCC[C@H](N)C(=O)N[C@H]1CC[C@@H]2CN(S(=O)(=O)c3ccc(C(F)(F)F)cc3)C[C@@H]21 [Example 422, N^1-((3aR,4S,6aS)-2-{[4-(trifluoromethyl)phenyl]sulfonyl}octahydrocyclopenta[c]pyrrol-4-yl)-L-norvalinamide]",7.83 µM,–
"O=C(N[C@H]1CC[C@@H]2CN(c3ccc(Cl)cc3)C[C@@H]21)[C@@H]1C[C@@H](F)CN1 [Example 644, (4R)-N-[(3aR,4S,6aS)-2-(4-chlorophenyl)octahydrocyclopenta[c]pyrrol-4-yl]-4-fluoro-L-prolinamide]",8.5 µM,–
"Cc1ccc(CN[C@H]2CC[C@@H]3CN(c4cccc(C(F)(F)F)n4)C[C@@H]32)cc1 [Example 649, (3aR,4S,6aS)-N-(4-methylbenzyl)-2-[6-(trifluoromethyl)pyridin-2-yl]octahydrocyclopenta[c]pyrrol-4-amine]",0.41 µM,–
"CCCC(C(=O)NC1CCC2CN(Cc3ccc(F)cc3)CC21)N(C)C(=O)OC(C)(C)C (single isomer, unassigned) [Example 315]",5.36 µM,–
"CC(C)CC(C(=O)NC1CCC2CN(Cc3ccc(F)c(C(F)(F)F)c3)CC21)N(C)C(=O)OC(C)(C)C [Example 312, tert-butyl(S)-1-((3aS,4R,6aR)-2-(4-fluoro-3-(trifluoromethyl)benzyl)octahydrocyclopenta[c]pyrrol-4-ylamino)-4-methyl-1-oxopentan-2-ylmethyl)carbamate]",1.59 µM,–
"CC(C)C[C@H](NC(=O)C(C)(C)C)C(=O)N[C@@H]1CC[C@H]2CN(Cc3cccc(C(F)(F)F)c3)C[C@H]21 [Example 177, N^2-(2,2-dimethylpropanoyl)-N^1-{(3aS,4R,6aR)-2-[3-(trifluoromethyl)benzyl]octahydrocyclopenta[c]pyrrol-4-yl}-L-leucinamide]",–,2.64 µM
"CC(C)NCC(=O)N[C@H]1CC[C@@H]2CN(c3ccc(C(F)(F)F)cc3)C[C@@H]21 [Example 761, N^2-isopropyl-N-{(3aR,4S,6aS)-2-[4-(trifluoromethyl)phenyl]octahydrocyclopenta[c]pyrrol-4-yl}glycinamide]",3.59 µM,–
"O=C(N[C@H]1CC[C@@H]2CN(c3ccc(F)c(C(F)(F)F)c3)C[C@@H]21)[C@@H]1C[C@@H](F)CN1 [Example 626, (4R)-4-fluoro-N-{(3aR,4S,6aS)-2-[4-fluoro-3-(trifluoromethyl)phenyl]octahydrocyclopenta[c]pyrrol-4-yl}-L-prolinamide]",4.52 µM,–
"O=C(N[C@H]1CC[C@@H]2CN(c3cccc(C(F)(F)F)n3)C[C@@H]21)[C@H](O)C(F)(F)F [Example 585, (2S)-3,3,3-trifluoro-2-hydroxy-N-{(3aR,4S,6aS)-2-[6-(trifluoromethyl)pyridin-2-yl]octahydrocyclopenta[c]pyrrol-4-yl}propanamide]",1.52 µM,–
"O=C(N[C@H]1CC[C@H]2CN(CCCc3ccccc3)C[C@H]21)C(C1CCCCC1)C1CCCCC1 [Example 69, 2,2-dicyclohexyl-N-[(3aS,4S,6aR)-2-(3-phenylpropyl)octahydrocyclopenta[c]pyrrol-4-yl]acetamide]",–,1.69 µM
"CC(C)C[C@H](NC(=O)OC1CCCC1)C(=O)N[C@@H]1CC[C@H]2CN(Cc3cccc(C(F)(F)F)c3)C[C@H]21 [Example 179, cyclopentyl(S)-4-methyl-1-oxo-1-((3aS,4R,6aR)-2-(3-(trifluoromethyl)benzyl)octahydrocyclopenta[c]pyrrol-4-ylamino)pentan-2-ylcarbamate]",–,0.89 µM
"CN[C@@H](CC(C)C)C(=O)N[C@H]1CC[C@@H]2CN(c3cccc(C(F)(F)F)n3)C[C@@H]21 [Example 590, N^2-methyl-N-{(3aR,4S,6aS)-2-[6-(trifluoromethyl)pyridin-2-yl]octahydrocyclopenta[c]pyrrol-4-yl}-L-leucinamide]",0.45 µM,–

SMILES,IC50,IC50 [1]
"CN[C@@H](CC(C)C)C(=O)N[C@H]1CC[C@@H]2CN(c3cccc(SC(F)(F)F)c3)C[C@@H]21 [Example 712, N^2-methyl-N-[(3aR,4S,6aS)-2-{3-[(trifluoromethyl)thio]phenyl]octahydrocyclopenta[c]pyrrol-4-yl}-L-leucinamide]",1.01 µM,–
"CC(C)C[C@@H](C(=O)N[C@H]1CC[C@H]2CN(Cc3ccccc3)C[C@H]21)N(C)C(=O)OC(C)(C)C [Example 239, tert-butyl(S)-1-((3aS,4S,6aR)-2-benzyloctahydrocyclopenta[c]pyrrol-4-ylamino)-4-methyl-1-oxopentan-2-yl(methyl)carbamate]",–,3.32 µM
"CC(C)(C)NC(=O)N[C@H]1CC[C@@H]2CN(c3cccc(OC(F)(F)F)c3)C[C@@H]21 [Example 779, 1-tert-butyl-3-{(3aR,4S,6aS)-2-[3-(trifluoromethoxy)phenyl]octahydrocyclopenta[c]pyrrol-4-yl}urea]",1.86 µM,–
"NC1(C(=O)N[C@H]2CC[C@@H]3CN(c4cccc(C(F)(F)F)n4)C[C@@H]32)CCCC1 [Example 594, 1-amino-N-{(3aR,4S,6aS)-2-[6-(trifluoromethyl)pyridin-2-yl]octahydrocyclopenta[c]pyrrol-4-yl}cyclopentanecarboxamide]",1.45 µM,–
"O=C(N[C@H]1CC[C@@H]2CN(c3ccnc(C(F)(F)F)c3)C[C@@H]21)[C@@H]1C[C@@H](F)CN1 [Example 638, (4R)-4-fluoro-N-{(3aR,4S,6aS)-2-[2-(trifluoromethyl)pyridin-4-yl]octahydrocyclopenta[c]pyrrol-4-yl}-L-prolinamide]",> 30 µM,–
"FC(F)(F)c1cccc(N2C[C@H]3CC[C@H](NCc4ccc5nsnc5c4)[C@H]3C2)n1 [Example 732, (3aR,4S,6aS)-N-(2,1,3-benzothiadiazol-5-ylmethyl)-2-[6-(trifluoromethyl)pyridin-2-yl]octahydrocyclopenta[c]pyrrol-4-amine]",0.56 µM,–
"CN[C@@H](CC(C)C)C(=O)N[C@H]1CC[C@@H]2CN(c3ccc(F)c(Cl)c3)C[C@@H]21 [Example 773, N-[(3aR,4S,6aS)-2-(3-chloro-4-fluorophenyl)octahydrocyclopenta[c]pyrrol-4-yl]-N^2-methyl-L-leucinamide]",1.79 µM,–
"CC(C)C(C(=O)N[C@H]1CC[C@@H]2CN(Cc3cccc(Cl)c3)C[C@@H]21)c1ccccc1 (stereo partly drawn) [Example 86, N-[(3aR,4S,6aS)-2-(3-chlorobenzyl)octahydrocyclopenta[c]pyrrol-4-yl]-3-methyl-2-phenylbutanamide]",–,1.63 µM
"O=C(N[C@H]1CC[C@@H]2CN(c3ccccc3F)C[C@@H]21)[C@@H]1C[C@@H](F)CN1 [Example 661, (4R)-4-fluoro-N-[(3aR,4S,6aS)-2-(2-fluorophenyl)octahydrocyclopenta[c]pyrrol-4-yl]-L-prolinamide]",14.7 µM,–
"Cc1oncc1C(=O)N[C@H]1CC[C@@H]2CN(c3cccc(C(F)(F)F)n3)C[C@@H]21 [Example 581, 5-methyl-N-{(3aR,4S,6aS)-2-[6-(trifluoromethyl)pyridin-2-yl]octahydrocyclopenta[c]pyrrol-4-yl}-1,2-oxazole-4-carboxamide]",2.99 µM,–
"CN[C@@H](CC(C)C)C(=O)N[C@@H]1CC[C@H]2CN(S(=O)(=O)c3ccccc3)C[C@H]21 [Example 448, N^2-methyl-N^1-[(3aS,4R,6aR)-2-(phenylsulfonyl)octahydrocyclopenta[c]pyrrol-4-yl]-L-leucinamide]",–,12.4 µM
"O=C(N[C@@H]1CC[C@H]2CN(CCCC(c3ccc(F)cc3)c3ccc(F)cc3)C[C@H]21)C(C1CCCCC1)C1CCCCC1 [Example 81, N-{(3aS,4R,6aR)-2-[4,4-bis(4-fluorophenyl)butyl]octahydrocyclopenta[c]pyrrol-4-yl}-2,2-dicyclohexylacetamide]",–,1.13 µM
"O=S(=O)(c1cccc(C(F)(F)F)c1)N1C[C@H]2CC[C@H](NC(c3ccccc3)c3ccccc3)[C@H]2C1 [Example 468, (3aR,4S,6aS)-N-benzhydryl-2-{[3-(trifluoromethyl)phenyl]sulfonyl}octahydrocyclopenta[c]pyrrol-4-amine]",–,2.26 µM
"O=C(N[C@H]1CC[C@@H]2CN(c3ccccc3Cl)C[C@@H]21)[C@@H]1C[C@@H](F)CN1 [Example 659, (4R)-N-[(3aR,4S,6aS)-2-(2-chlorophenyl)octahydrocyclopenta[c]pyrrol-4-yl]-4-fluoro-L-prolinamide]",6.85 µM,–
"COc1ccccc1CN1C[C@H]2CC[C@H](NC(=O)C(c3ccccc3)C(C)C)[C@H]2C1 (stereo partly drawn) [Example 94, N-[(3aR,4S,6aS)-2-(2-methoxybenzyl)octahydrocyclopenta[c]pyrrol-4-yl]-3-methyl-2-phenylbutanamide]",–,2.33 µM
